In patent US6395255B1, “Radiolabeled vasoactive intestinal peptide analogs for imaging and therapy” (Thomas Jefferson University, priority 1998, dated 2002):
“Also recorded” adds a separate entry of the source. Blank lines part the entries; values can stand above or below the compound they belong to. Square brackets hold non-standard residues; d marks the D form. Ends that are not written are not given here. Peptide text beside a SMILES is read from it. GABA = NCCCC(=O)O

Columns and labels:
[1] = tested on: LS174T human colorectal tumor; test: Tissue distribution and gamma camera imaging in nude mice bearing LS174T tumors; conditions: for delineation of tumor in gamma camera image: nude mice bearing LS174T tumor in right thigh, 24 h after injection
Procedure: Tissue Distribution Studies
(§1) The ability of ^99MTc-TP3654 to detect human colorectal carcinoma was examined in nude mice.
(§2) Human colorectal cancer cells LS 174T (ATCC) were grown in culture and 5×10^6 viable cells were implanted intramuscularly in the right thighs of athymic NCr nude mice that weighed 20-25 g. Tumors were grown to no more than 1 cm in diameter. Each animal received approximately 700 Ci of ^99mTc-TP3654 (1450 Ci/mrnol) in 200 1, of saline through a lateral tail vein. Exact activity injected was determined by measuring the syringe, before and after injection, in a calibrated ionization chamber (Capintech, Ramsey, N.J.). A suitable standard of ^99mTc was prepared at the time of injection.
(§3) At 4 or 24 h later, animals were killed and imaged using a GE STARCAM gamma camera (Milwaukee, Wis.) equipped with a low-energy parallel-hole collimator and a dedicated computer. Tissues were dissected and weighed, and associated radioactivity was counted (Packard 5000 series gamma counter), along with a standard, in duplicate. Results were calculated as percentage injected dose per gram of tissue (% ID/g) and were analyzed by using Student t test.
(§4) A tissue distribution study was performed in a manner similar to that for ^99mTc-TP3654.
(§5) For animal tissue distribution studies, a protocol similar to that for ^99mTc-TP3654 was followed.

[2] = as above; conditions: athymic NCr nude, mouse, iv, total radioactivity, 24 h postinjection, mean ± SD, n = 5; for tissue uptake at 24 h: Biodistribution
Procedure: Tissue Distribution Studies
as §1, §2, §3, §4, §5

in vivo [3] = conditions: athymic NCr nude, mouse, iv, total radioactivity; for tissue uptake at 4 h / tissue uptake at 24 h: Biodistribution
Procedure: Tissue Distribution Studies
as §1, §2, §3, §4, §5

[4] = design: species or system Sprague-Dawley rats; conditions: Sprague-Dawley, rat, in vivo, iv
Procedure: Blood Clearance in Rats Three Sprague-Dawley rats, each weighing approximately 250 g, were injected through a lateral tail vein with 1 mCi ^99mTcTP3654 and serial blood samples were drawn, in triplicate, through the other lateral tail vein at 1, 5, 10, 15 and 30 min and then at 1, 2, 4, 6, 18 and 24 h. Blood samples were weighed, radioactivity was counted with a standard ^99mTc solution prepared at the time of injection and the percentage injected dose per gram of blood was plotted as a function of time.

[5] = tested on: LS174T human colorectal tumor; conditions: athymic NCr nude, mouse, in vivo, iv, 24 h
Procedure: Tissue Distribution Studies
as §1, §2, §3, §4, §5

[6] = format: physicochemical
Procedure: Stability of ^99mTc-TP3654 To measure the in vitro stability of ^99mTc-TP3654, a known quantity of the preparation was incubated at 37° C. for 24 h, with 100 molar excess of DTPA, HSA or cysteine. At 0, 5 and 24 h, samples were withdrawn for HPLC analysis and the radioactivity that was associated with the challenging agent and that remained as ^99mTc-TP3654 (Rt=11.8 min) was measured.

in vivo [7] = conditions: rat, total radioactivity
VIP receptor = test: Receptor blocking with unlabeled VIP-28 or TP3654 in LS174T tumor-bearing nude mice; format: in vivo; conditions: 50 μg unlabeled peptide intravenously 30 min before tracer, 24 h, vs not pretreated mice
Procedure: Receptor Blocking […] Mice were killed 24 h later, and percentage injected dose per gram of tissues was determined. Data were compared to 24 h distribution in mice (n=5) given 700 μCi ^99mTc-TP3654 but not pretreated with unlabeled VIP or TP3654.

colonic adenocarcinoma = conditions: cited from earlier work
[8] = tested on: internal anal sphincter (IAS) smooth muscle; test: Functional assay using opossum internal anal sphincter smooth muscle strips (fall in resting tension); format: tissue-based, opossums (Didelphis virginiana); conditions: at 10^−6 mol/L; 100% = maximal relaxation with 5 mmol/L EDTA

- Biodistribution, Kidney ([1]; kidney, 24 h postinjection, nude mice bearing LS174T tumors, mean ± SD, n = 5): 0.2±0.02 % ID/g
- tissue uptake at 24 h ([2]; blood, nude mice bearing LS174T tumors): 0.03 %ID/g
- tissue uptake at 24 h ([2]; heart, nude mice bearing LS174T tumors): 0.01 %ID/g
- tissue uptake at 24 h ([2]; kidney, nude mice bearing LS174T tumors): 0.2 ± 0.02 %ID/g
- tissue uptake at 24 h ([2]; liver, nude mice bearing LS174T tumors): 0.16 ± 0.02 %ID/g
- tissue uptake at 24 h ([2]; lung, nude mice bearing LS174T tumors): 0.03 %ID/g
- tissue uptake at 24 h ([2]; muscle, nude mice bearing LS174T tumors): 0.01 %ID/g
- tissue uptake at 24 h ([2]; small intestine, nude mice bearing LS174T tumors): 0.03 ± 0.01 %ID/g
- tissue uptake at 24 h ([2]; spleen, nude mice bearing LS174T tumors): 0.06 ± 0.03 %ID/g
- tissue uptake at 24 h ([2]; tumor, LS174T tumor, nude mice): 0.03 %ID/g
- tissue to tissue ratio at 24 h ([2]; tumor/blood, T/B ratio (tumor-to-blood), nude mice bearing LS174T tumors): 0.77 ± 0.03
- tissue to tissue ratio at 24 h ([2]; tumor/muscle, T/M ratio (tumor-to-muscle), nude mice bearing LS174T tumors): 1.88 ± 0.36
Compound: C[C@@H](NC(=O)CN)C(=O)NCC(=O)NCC(=O)NCCCC(=O)O [^99mTc-G(D)AGG-Aba, metal not drawn] (H-G[dA]GG[GABA]-OH; N-terminus and C-terminus assumed)
- delineation of tumor in gamma camera image [1]: not delineated
- delineation of tumor in gamma camera image ([1]; listed as 99mTc-G(D)AGG): not

- tissue uptake at 4 h (in vivo [3]; Blood): 0.21 ± 0.02 %ID/g
- tissue uptake at 24 h (in vivo [3]; Blood): 0.12 ± 0.02 %ID/g
- tissue uptake at 4 h (in vivo [3]; Heart): 0.1 %ID/g
- tissue uptake at 24 h (in vivo [3]; Heart): 0.06 ± 0.01 %ID/g
- tissue uptake at 4 h (in vivo [3]; Kidney): 19 ± 3.75 %ID/g
- tissue uptake at 24 h (in vivo [3]; Kidney): 3.52 ± 0.4 %ID/g
- tissue uptake at 4 h (in vivo [3]; Liver): 1.12 ± 0.08 %ID/g
- tissue uptake at 24 h (in vivo [3]; Liver): 0.33 ± 0.04 %ID/g
- tissue uptake at 4 h (in vivo [3]; Lung): 0.17 ± 0.01 %ID/g
- tissue uptake at 24 h (in vivo [3]; Lung): 0.16 ± 0.09 %ID/g
- tissue uptake at 4 h (in vivo [3]; Muscle): 0.09 ± 0.01 %ID/g
- tissue uptake at 24 h (in vivo [3]; Muscle): 0.04 ± 0.01 %ID/g
- tissue uptake at 4 h (in vivo [3]; Small intestine): 0.18 ± 0.05 %ID/g
- tissue uptake at 24 h (in vivo [3]; Small intestine): 0.05 ± 0.01 %ID/g
- tissue uptake at 4 h (in vivo [3]; Spleen): 0.19 ± 0.05 %ID/g
- tissue uptake at 24 h (in vivo [3]; Spleen): 0.11 ± 0.02 %ID/g
- tissue uptake at 4 h (in vivo [3]; Tumor): 0.24 ± 0.06 %ID/g
- tissue uptake at 24 h (in vivo [3]; Tumor): 0.2 %ID/g
- tissue to tissue ratio at 4 h (in vivo [3]; T/B ratio (tumor-to-blood)): 1.16 ± 0.29
- tissue to tissue ratio at 24 h (in vivo [3]; T/B ratio (tumor-to-blood)): 1.98 ± 1.44
- tissue to tissue ratio at 4 h (in vivo [3]; T/M ratio (tumor-to-muscle)): 2.73 ± 1.09
- tissue to tissue ratio at 24 h (in vivo [3]; T/M ratio (tumor-to-muscle)): 6.28 ± 3.09
- blood clearance α-t 1/2 [4]: approximately 5 min
- blood clearance β-t½ [4]: approximately 120 min
- Biodistribution, Tumor [5]: 0.23 ± 0.13 % ID/g
- stability on storage (HPLC) [6]: stable for up to 24 h
- radioactivity displaced by challenge with 100 molar excess of DTPA, HSA or cysteine ([6]; 24 h of incubation at 37° C.): approximately 11%
- tissue uptake at 4 h (in vivo [7]): 0.73 ± 0.12 %ID/g
Compound: CC[C@H](C)[C@H](NC(=O)[C@H](CO)NC(=O)[C@H](CC(N)=O)NC(=O)[C@H](CC(C)C)NC(=O)[C@H](Cc1ccc(O)cc1)NC(=O)[C@H](CCCCN)NC(=O)[C@H](CCCCN)NC(=O)[C@@H](NC(=O)[C@H](C)NC(=O)[C@H](CCSC)NC(=O)[C@H](CCC(N)=O)NC(=O)[C@H](CCCCN)NC(=O)[C@H](CCCNC(=N)N)NC(=O)[C@H](CC(C)C)NC(=O)[C@H](CCCNC(=N)N)NC(=O)[C@@H](NC(=O)[C@H](Cc1ccc(O)cc1)NC(=O)[C@H](CC(N)=O)NC(=O)[C@H](CC(=O)O)NC(=O)[C@@H](NC(=O)[C@H](Cc1ccccc1)NC(=O)[C@@H](NC(=O)[C@H](C)NC(=O)[C@H](CC(=O)O)NC(=O)[C@H](CO)NC(=O)[C@@H](N)Cc1c[nH]cn1)C(C)C)[C@@H](C)O)[C@@H](C)O)C(C)C)C(=O)N[C@@H](CC(C)C)C(=O)N[C@@H](CC(N)=O)C(=O)NCCCC(=O)NCC(=O)NCC(=O)N[C@H](C)C(=O)NCC(=O)O [^99mTc-TP3654, metal not drawn]
- delineation of tumor in gamma camera image [1]: delineates the tumor and both kidneys; also recorded: clearly delineated
- uptake of ^99mTc-TP3654 after pretreatment with unlabeled TP3654 or VIP (VIP receptor): decreased in all VIP receptor-rich tissues except the kidneys

Compound: I-123 labeled VIP: I-123 labeled vasoactive intestinal peptide (VIP)
- positive scans in patients with colonic adenocarcinoma (colonic adenocarcinoma; 17 patients): 17 out of 17
- lung uptake (colonic adenocarcinoma; human, in vivo): approximately 25%
- effectiveness in imaging colorectal adenocarcinoma (colonic adenocarcinoma; patients): 100%
- effectiveness in imaging in patients with liver metastases (colonic adenocarcinoma; patients): 83%
- imaging of lung metastases (colonic adenocarcinoma; patients): 66%

Compound: CPTA-VIP: VIP conjugated with the chelating agent CPTA, [4-(1,4,8,11-tetraazacyclotetradec-1-yl)methyl] benzoic acid (HSDAVFTDNYTRLRKQMAVKKYLNSILN; ends and bridges not checked; also: conjugated with chelator CPTA, position not given here; UniProt P01282 125-152, looked up)
- muscle relaxivity (fall in resting IAS tension) [8]: 35%
